Where two headings read alike, the source gives them in different places.
How the values were obtained:
[1] = system: HL-60(TB)
[2] = system: NCI/ADR-RES
[3] = system: UO-31
[4] = system: K-562; test: panel of 60 human tumor cell lines, growth inhibition (Leukemia); conditions: K-562
[5] = system: M14; test: panel of 60 human tumor cell lines, growth inhibition (Melanoma); conditions: M14
[6] = system: SK-MEL-2; test: as above; conditions: SK-MEL-2
[7] = system: UACC-62; test: as above; conditions: UACC-62
[8] = system: SNB-75; test: panel of 60 human tumor cell lines, growth inhibition (CNS Cancer); conditions: SNB-75
[9] = system: HCT-116; test: panel of 60 human tumor cell lines, growth inhibition (Colon Cancer); conditions: HCT-116
[10] = system: HCT-15; test: as above; conditions: HCT-15
[11] = system: 786-0; test: panel of 60 human tumor cell lines, growth inhibition (Renal Cancer); conditions: 786-0
[12] = system: RXF 393; test: as above; conditions: RXF 393
[13] = system: UO-31; test: as above; conditions: UO-31
[14] = system: MCF7; test: panel of 60 human tumor cell lines, growth inhibition (Breast Cancer); conditions: MCF7
[15] = system: BT-549; test: as above; conditions: BT-549
[16] = system: OVCAR-3; test: panel of 60 human tumor cell lines, growth inhibition (Ovarian Cancer); conditions: OVCAR-3
[17] = system: SK-OV-3; test: as above; conditions: SK-OV-3
[18] = system: DU-145; test: panel of 60 human tumor cell lines, growth inhibition (Prostate Cancer); conditions: DU-145
[19] = system: NCI-H226; test: panel of 60 human tumor cell lines, growth inhibition (Non-Small Cell Lung Cancer); conditions: NCI-H226
[20] = system: NCI-H322M; test: as above

C=C1C(=O)O[C@H]2[C@H]1CC/C(COC(=O)CCC(=O)N1CCC(C)CC1)=C\CC[C@@]1(C)O[C@@H]21 [JVM 2-70]
Percent Growth ([1]; Log10 Concentration −4.0): −59% | Percent Growth ([1]; Log10 Concentration −5.0): −12% | Percent Growth ([1]; Log10 Concentration −6.0): 112% | Percent Growth ([1]; Log10 Concentration −7.0): 111% | Percent Growth ([1]; Log10 Concentration −8.0): 110% | GI50 ([1]; NCI five dose): 3.16 µM | TGI ([1]; NCI five dose): 7.96E−6 | CC50 ([1]; read-out: LC50, NCI five dose): 63.1 µM | CC50 [2]: 96 µM | CC50 [3]: 46.9 µM | Percent Growth ([4]; Log10 Concentration −4.0): −38% | Percent Growth ([4]; Log10 Concentration −5.0): 7% | Percent Growth ([4]; Log10 Concentration −6.0): 90% | Percent Growth ([4]; Log10 Concentration −7.0): 109% | Percent Growth ([4]; Log10 Concentration −8.0): 109% | GI50 ([4]; NCI five dose): 3.06 µM | TGI ([4]; NCI five dose): 1.45E−5 | Percent Growth ([5]; Log10 Concentration −4.0): −81% | Percent Growth ([5]; Log10 Concentration −5.0): 21% | Percent Growth ([5]; Log10 Concentration −6.0): 84% | Percent Growth ([5]; Log10 Concentration −7.0): 94% | Percent Growth ([5]; Log10 Concentration −8.0): 91% | GI50 ([5]; NCI five dose): 3.44 µM | TGI ([5]; NCI five dose): 1.60E−5 | Percent Growth ([6]; Log10 Concentration −4.0): −82% | Percent Growth ([6]; Log10 Concentration −5.0): 68% | Percent Growth ([6]; Log10 Concentration −6.0): 108% | Percent Growth ([6]; Log10 Concentration −7.0): 112% | Percent Growth ([6]; Log10 Concentration −8.0): 106% | GI50 ([6]; NCI five dose): 13.1 µM | TGI ([6]; NCI five dose): 2.83E−5 | Percent Growth ([7]; Log10 Concentration −4.0): −87% | Percent Growth ([7]; Log10 Concentration −5.0): 33% | Percent Growth ([7]; Log10 Concentration −6.0): 92% | Percent Growth ([7]; Log10 Concentration −7.0): 94% | Percent Growth ([7]; Log10 Concentration −8.0): 97% | GI50 ([7]; NCI five dose): 5.15 µM | TGI ([7]; NCI five dose): 1.89E−5 | Percent Growth ([8]; Log10 Concentration −4.0): −85% | Percent Growth ([8]; Log10 Concentration −5.0): 57% | Percent Growth ([8]; Log10 Concentration −6.0): 80% | Percent Growth ([8]; Log10 Concentration −7.0): 81% | Percent Growth ([8]; Log10 Concentration −8.0): 72% | GI50 ([8]; NCI five dose): 11.2 µM | TGI ([8]; NCI five dose): 2.53E−5 | Percent Growth ([9]; Log10 Concentration −4.0): −93% | Percent Growth ([9]; Log10 Concentration −5.0): −46% | Percent Growth ([9]; Log10 Concentration −6.0): 79% | Percent Growth ([9]; Log10 Concentration −7.0): 95% | Percent Growth ([9]; Log10 Concentration −8.0): 91% | GI50 ([9]; NCI five dose): 1.69 µM | TGI ([9]; NCI five dose): 4.25E−6 | Percent Growth ([10]; Log10 Concentration −4.0): −70% | Percent Growth ([10]; Log10 Concentration −5.0): −29% | Percent Growth ([10]; Log10 Concentration −6.0): 74% | Percent Growth ([10]; Log10 Concentration −7.0): 91% | Percent Growth ([10]; Log10 Concentration −8.0): 90% | GI50 ([10]; NCI five dose): 1.7 µM | TGI ([10]; NCI five dose): 5.22E−6 | Percent Growth ([11]; Log10 Concentration −4.0): −78% | Percent Growth ([11]; Log10 Concentration −5.0): 39% | Percent Growth ([11]; Log10 Concentration −6.0): 100% | Percent Growth ([11]; Log10 Concentration −7.0): 98% | Percent Growth ([11]; Log10 Concentration −8.0): 90% | GI50 ([11]; NCI five dose): 6.64 µM | TGI ([11]; NCI five dose): 2.17E−5 | Percent Growth ([12]; Log10 Concentration −4.0): −88% | Percent Growth ([12]; Log10 Concentration −5.0): −54% | Percent Growth ([12]; Log10 Concentration −6.0): 91% | Percent Growth ([12]; Log10 Concentration −7.0): 101% | Percent Growth ([12]; Log10 Concentration −8.0): 105% | GI50 ([12]; NCI five dose): 1.91 µM | TGI ([12]; NCI five dose): 4.24E−6 | Percent Growth ([13]; Log10 Concentration −4.0): −84% | Percent Growth ([13]; Log10 Concentration −5.0): 19% | Percent Growth ([13]; Log10 Concentration −6.0): 88% | Percent Growth ([13]; Log10 Concentration −7.0): 94% | Percent Growth ([13]; Log10 Concentration −8.0): 96% | GI50 ([13]; NCI five dose): 3.56 µM | TGI ([13]; NCI five dose): 1.53E−5 | Percent Growth ([14]; Log10 Concentration −4.0): −63% | Percent Growth ([14]; Log10 Concentration −5.0): 4% | Percent Growth ([14]; Log10 Concentration −6.0): 74% | Percent Growth ([14]; Log10 Concentration −7.0): 88% | Percent Growth ([14]; Log10 Concentration −8.0): 83% | GI50 ([14]; NCI five dose): 2.22 µM | TGI ([14]; NCI five dose): 1.16E−5 | Percent Growth ([15]; Log10 Concentration −4.0): −96% | Percent Growth ([15]; Log10 Concentration −5.0): −10% | Percent Growth ([15]; Log10 Concentration −6.0): 71% | Percent Growth ([15]; Log10 Concentration −7.0): 86% | Percent Growth ([15]; Log10 Concentration −8.0): 81% | GI50 ([15]; NCI five dose): 1.82 µM | TGI ([15]; NCI five dose): 7.55E−6 | Percent Growth ([16]; Log10 Concentration −4.0): −96% | Percent Growth ([16]; Log10 Concentration −5.0): −2% | Percent Growth ([16]; Log10 Concentration −6.0): 88% | Percent Growth ([16]; Log10 Concentration −7.0): 105% | Percent Growth ([16]; Log10 Concentration −8.0): 109% | GI50 ([16]; NCI five dose): 2.85 to 6 µM | TGI ([16]; NCI five dose): 9.47E−6 | Percent Growth ([17]; Log10 Concentration −4.0): −10% | Percent Growth ([17]; Log10 Concentration −5.0): 95% | Percent Growth ([17]; Log10 Concentration −6.0): 99% | Percent Growth ([17]; Log10 Concentration −7.0): 101% | Percent Growth ([17]; Log10 Concentration −8.0): 92% | GI50 ([17]; NCI five dose): 26.8 µM | TGI ([17]; NCI five dose): 8.06E−5 | Percent Growth ([18]; Log10 Concentration −4.0): −89% | Percent Growth ([18]; Log10 Concentration −5.0): 26% | Percent Growth ([18]; Log10 Concentration −6.0): 95% | Percent Growth ([18]; Log10 Concentration −7.0): 106% | Percent Growth ([18]; Log10 Concentration −8.0): 107% | GI50 ([18]; NCI five dose): 4.44 µM | TGI ([18]; NCI five dose): 1.68E−5 | Percent Growth ([19]; Log10 Concentration −4.0): −59% | Percent Growth ([19]; Log10 Concentration −5.0): 19% | Percent Growth ([19]; Log10 Concentration −6.0): 87% | Percent Growth ([19]; Log10 Concentration −7.0): 93% | Percent Growth ([19]; Log10 Concentration −8.0): 92% | GI50 ([19]; NCI five dose): 3.51 µM | TGI ([19]; NCI five dose): 1.75E−5 | Percent Growth ([20]; Log10 Concentration −4.0): −83% | Percent Growth ([20]; Log10 Concentration −5.0): 93% | Percent Growth ([20]; Log10 Concentration −6.0): 102% | Percent Growth ([20]; Log10 Concentration −7.0): 108% | Percent Growth ([20]; Log10 Concentration −8.0): 102% | GI50 ([20]; NCI five dose): 17.6 µM | TGI ([20]; NCI five dose): 3.39E−5
